# Assays:
# Type in all cases: in vivo
# [1] = tested on: barnyardgrass (Echinochloa crus-galli); experiment: Test B postemergence
# Outline: (§1)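 Greenhouse test: chemicals are formulated in a surfactant-containing non-phytotoxic solvent and applied either preemergence to planted seeds or postemergence to plants 2 to 18 cm tall. Response is rated visually versus controls after 13 to 15 days, 0 meaning no effect and 100 complete control.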
# corn (Zea mays) [2] = experiment: Test B postemergence
# Outline: as §1
# wild oat (Avena fatua) = experiment: Test B postemergence
# Outline: as §1
# [3] = tested on: pigweed (Amaranthus retroflexus); experiment: Test B postemergence
# Outline: as §1
# [4] = tested on: morning glory (Ipomoea hederacea); experiment: Test B postemergence
# Outline: as §1
# [5] = tested on: wheat (Triticum aestivum); experiment: Test B postemergence
# Outline: as §1
# [6] = tested on: Surinam grass (Brachiaria decumbens); experiment: Test B postemergence
# Outline: as §1
# [7] = tested on: lambsquarters (Chenopodium album); experiment: Test B postemergence
# Outline: as §1
# [8] = tested on: velvetleaf (Abutilon theophrasti); experiment: Test B postemergence
# Outline: as §1
# [9] = tested on: giant foxtail (Setaria faberii); experiment: Test B postemergence
# Outline: as §1
# kochia (Kochia scoparia) = experiment: Test C postemergence
# Outline: (§2)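 Herbicidal effect is a visual 0–100 score (100 = complete control) assigned versus untreated plants, 12 to 14 days after spraying in the greenhouse. Test compounds were applied in a non-phytotoxic, surfactant-containing solvent.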
# corn (Zea mays) [10] = experiment: Test C postemergence
# Outline: as §2
# soybean (Glycine max) = experiment: Test C postemergence
# Outline: as §2
# [11] = tested on: cocklebur (Xanthium strumarium); experiment: Test C postemergence
# Outline: as §2
# [12] = tested on: pigweed (Amaranthus retroflexus); experiment: Test C postemergence
# Outline: as §2
# [13] = tested on: bermudagrass (Cynodon dactylon); experiment: Test C postemergence
# Outline: as §2
# [14] = tested on: Surinam grass (Brachiaria decumbens); experiment: Test C postemergence
# Outline: as §2
# [15] = tested on: crabgrass (Digitaria sanguinalis); experiment: Test C postemergence
# Outline: as §2
# [16] = tested on: yellow nutsedge (Cyperus esculentus); experiment: Test C postemergence
# Outline: as §2
# [17] = tested on: johnsongrass (Sorghum halepense); experiment: Test C postemergence
# Outline: as §2
# [18] = tested on: velvetleaf (Abutilon theophrasti); experiment: Test C postemergence
# Outline: as §2
# [19] = tested on: woolly cupgrass (Eriochloa villosa); experiment: Test C postemergence
# Outline: as §2
# [20] = tested on: giant foxtail (Setaria faberii); experiment: Test C postemergence
# Outline: as §2
# [21] = Rate 125 g/ha, scale 0 to 100, 0 no effect, 100 complete control
# [22] = Rate 500 g/ha, scale 0 (no effect) to 100 (complete control), 13 to 15 days
# [23] = Rate 250 g/ha, scale 0 to 100 (0 no effect, 100 complete control)
# [24] = Rate 500 g/ha, scale 0 to 100 (0 no effect, 100 complete control)
smiles,measurement,setting,value
CCC(C)c1ccn(C2CCN(c3ccc(Br)c(OC)c3)C2=O)n1 (stereo not shown) [Compound 142],"Plant response rating, Barnyardgrass",[1]; [21],0
same,"Plant response rating, Barnyardgrass",[1]; [22],60
same,"Plant response rating, Corn",corn (Zea mays) [2]; [21],0
same,"Plant response rating, Corn",corn (Zea mays) [2]; [22],30
same,"Plant response rating, Wild Oat",wild oat (Avena fatua); [21],0
same,"Plant response rating, Wild Oat",wild oat (Avena fatua); [22],0
same,"Plant response rating, Pigweed",[3]; [21],60
same,"Plant response rating, Pigweed",[3]; [22],80
same,"Plant response rating, Morningglory",[4]; [21],70
same,"Plant response rating, Morningglory",[4]; [22],100
same,"Plant response rating, Wheat",[5]; [21],0
same,"Plant response rating, Wheat",[5]; [22],0
same,"Plant response rating, Surinam grass",[6]; [21],0
same,"Plant response rating, Surinam grass",[6]; [22],0
same,"Plant response rating, Lambsquarters",[7]; [21],70
same,"Plant response rating, Lambsquarters",[7]; [22],100
same,"Plant response rating, Velvetleaf",[8]; [21],40
same,"Plant response rating, Velvetleaf",[8]; [22],70
same,"Plant response rating, Foxtail, Giant",[9]; [21],30
same,"Plant response rating, Foxtail, Giant",[9]; [22],90
same,"Plant response rating, Kochia","kochia (Kochia scoparia); Rate 62 g/ha, scale 0 to 100",40
same,"Plant response rating, Kochia",kochia (Kochia scoparia); [23],90
same,"Plant response rating, Kochia",kochia (Kochia scoparia); [24],90
same,"Plant response rating, Corn","corn (Zea mays) [10]; Rate 62 g/ha, scale 0 to 100",0
same,"Plant response rating, Corn",corn (Zea mays) [10]; [23],0
same,"Plant response rating, Corn",corn (Zea mays) [10]; [24],20
same,"Plant response rating, Corn",corn (Zea mays) [10]; scale 0 to 100,0
same,"Plant response rating, Soybean","soybean (Glycine max); Rate 62 g/ha, scale 0 to 100",60
same,"Plant response rating, Soybean",soybean (Glycine max); [23],90
same,"Plant response rating, Soybean",soybean (Glycine max); [24],90
same,"Plant response rating, Cocklebur","[11]; Rate 62 g/ha, scale 0 to 100",30
same,"Plant response rating, Cocklebur",[11]; [23],90
same,"Plant response rating, Cocklebur",[11]; [24],90
same,"Plant response rating, Pigweed","[12]; Rate 62 g/ha, scale 0 to 100",80
same,"Plant response rating, Pigweed",[12]; [23],90
same,"Plant response rating, Pigweed",[12]; [24],90
same,"Plant response rating, Bermudagrass","[13]; Rate 62 g/ha, scale 0 to 100",30
same,"Plant response rating, Bermudagrass",[13]; [21],40
same,"Plant response rating, Bermudagrass",[13]; [23],60
same,"Plant response rating, Bermudagrass",[13]; [24],80
same,"Plant response rating, Surinam grass","[14]; Rate 62 g/ha, scale 0 to 100",20
same,"Plant response rating, Surinam grass",[14]; [21],30
same,"Plant response rating, Surinam grass",[14]; [23],30
same,"Plant response rating, Surinam grass",[14]; [24],30
same,"Plant response rating, Crabgrass","[15]; Rate 62 g/ha, scale 0 to 100",40
same,"Plant response rating, Crabgrass",[15]; [23],70
same,"Plant response rating, Crabgrass",[15]; [24],70
same,"Plant response rating, Nutsedge","[16]; Rate 62 g/ha, scale 0 to 100",0
same,"Plant response rating, Nutsedge",[16]; [23],0
same,"Plant response rating, Nutsedge",[16]; [24],20
same,"Plant response rating, Johnsongrass","[17]; Rate 62 g/ha, scale 0 to 100",20
same,"Plant response rating, Johnsongrass",[17]; [23],30
same,"Plant response rating, Johnsongrass",[17]; [24],30
same,"Plant response rating, Johnsongrass","[17]; rate not given, scale 0 to 100",30
same,"Plant response rating, Velvetleaf","[18]; Rate 62 g/ha, scale 0 to 100",50
same,"Plant response rating, Velvetleaf",[18]; [23],80
same,"Plant response rating, Velvetleaf",[18]; [24],80
same,"Plant response rating, Velvetleaf",[18]; scale 0 to 100,70
same,"Plant response rating, Cupgrass, Woolly","[19]; Rate 62 g/ha, scale 0 to 100",40
same,"Plant response rating, Cupgrass, Woolly",[19]; [23],50
same,"Plant response rating, Cupgrass, Woolly",[19]; [24],70
same,"Plant response rating, Foxtail, Giant","[20]; Rate 62 g/ha, scale 0 to 100",90
same,"Plant response rating, Foxtail, Giant",[20]; [23],90
same,"Plant response rating, Foxtail, Giant",[20]; [24],90

# Source: patent US7138361B2, “Herbicidal heterocycles” (E. I. du Pont de Nemours and Company, priority 2000, dated 2006)
